The values that follow come from patent US20230414615A1, “PYRIMIDINONE COMPOUNDS FOR TREATING ACUTE INFLAMMATION” (TES Pharma S.r.l., priority 2022, published 2023).

Test [1] concerns Kupffer cells. Put plainly: Cytokine secretion in Kupffer cells following LPS-induced inflammation (Bio-Plex). In kind it is cell-based, mouse. The following applies: LPS 50 ng/mL. The text has this: […] Cells treated with DMSO were used as control at the final concentration of 0.5% in medium. All the wells were normalized with DMSO at 0.5% final concentration. The supernatant was collected to measure cytokine secretion using a Bio-Plex Pro mouse cytokine 23-plex assay system (cat #M60009RDPD) using a Bio-Plex Instrument. The cells were washed once with PBS, and then lysed to extract total RNA for performing RT-PCR to evaluate ACMSD modulation of IL-10, SIRT1, and STAT3 gene expression.
All cytokine secretion values were normalized to the luminescent signal relative to the measuring of the cellular ATP (CellTiter-Glo cat #G7571)).

Test [2] deals with Kupffer cells. In words: NAD+ biosynthesis in Kupffer cells. In kind it is cell-based.
Test [3] concerns primary hepatocytes. In words: NAD+ biosynthesis in primary hepatocytes. In kind it is cell-based.
Test [4] relates to kidney proximal tubular HK2 cells. Put plainly: NAD+ biosynthesis in kidney proximal tubular HK2 cells. In kind it is cell-based.
The test system of test [5] is primary hepatocytes. Put plainly: SIRT1 activation in primary hepatocytes. In kind it is cell-based. The following applies: 500 nM; 24 hrs after treatment.
In test [6] the test system is mouse primary hepatocytes. Put plainly: SOD2 activity in mouse primary hepatocytes. In kind it is cell-based. As to conditions: treatment for 24 hrs; stated as dose-dependent.
The test system of test [7] is primary hepatocytes. In words: Gene expression / mRNA levels in primary hepatocytes. In kind it is cell-based, mouse.
Test [8] deals with co-culture primary hepatocytes and Kupffer cells. Put plainly: IL-6 secretion in co-culture of primary hepatocytes and Kupffer cells following LPS-induced inflammation. In kind it is cell-based. As to conditions: LPS 50 ng/mL; stated as dose-dependent.
Test [9] deals with human primary bone marrow mononuclear cells (BMMCs). Put plainly: LPS-induced cytokine secretion in human primary bone marrow mononuclear cells (BMMCs). In kind it is cell-based. As to conditions: BMMC cells; LPS 50 ng/mL.
Test [10] has as its system co-culture of primary hepatocytes and stellate cells. In words: Cytokine secretion in co-culture of primary hepatocytes and stellate cells following LPS-induced inflammation. In kind it is cell-based. The following applies: LPS 50 ng/mL.
For test [11] the test system is unchanged. In words: Gene expression in co-culture of primary hepatocytes and stellate cells after free fatty acid mix. In kind it is cell-based. As to conditions: 5 μM; after 6 hr exposure to palmitate (0.33 mM) and oleate (0.66 mM).
The subject of the next test is rat renal NRK52E cells. Put plainly: OPA-1 expression in rat renal NRK52E cells following Cisplatin insult. In kind it is cell-based. As to conditions: via SIRT-3 activation; following Cisplatin insult (100 μM).
The subject of a further test is liver and kidneys. In words: Transcription of mitochondrial genes in liver and kidneys after administration of ACMSD inhibitors. In kind it is in vivo.

As to `N#Cc1c(-c2cccs2)nc(SCc2cccc(-c3nn[nH]n3)c2)[nH]c1=O` [Compound I-17], the “secretion of IL-1β” value (with Kupffer cells [1] (1 μM); in [10] (1 μM)) was “reduces” in each case. Further, the “secretion of IL-6” value is on record as “reduced” with Kupffer cells [1] (1 μM, incubation time 24 h) and “reduced” in test [8]. The “secretion of TNFα” value (in the test on Kupffer cells [1]; in test [9]; in [10]) was “reduces” throughout. Also, the “NAD+ biosynthesis” value (with Kupffer cells [2]; in the test with primary hepatocytes [3]; in [4]) was “restores” in each case. In the test with primary hepatocytes [5], the SIRT1 activation result is “activate”. For the same compound, the “activity of mitochondrial superoxide dismutase 2, SOD2” value in test [6] was “increases”. Also, in the test on primary hepatocytes [7] (mouse primary hepatocytes after 24 hr treatment), the “mRNA levels of mitochondrial genes TFAM, Ndufa, Uqcrc1, CytC, Atp5g1 and CS” value is “increases”. For the same compound, the “expression of mitochondrial SOD2” value in the test with primary hepatocytes [7] (primary hepatocytes) is “increases”. The “mRNA levels of fatty acid oxidation genes Mcad, Cpt1a, Hadha1, Hsl, Pdk4 and Sdha” value in the test on primary hepatocytes [7] (primary hepatocytes after 6 hr exposure to palmitate (0.33 mM) and oleate (0.66 mM)) was “increases”. Also, the “expression of mitochondrial transcription factor A, TFAM” value in the test on primary hepatocytes [7] (primary hepatocytes, via SIRT-1 activation) was “increasing”. Besides, the “expression of IL-1β” value in test [11] is “reduced”. For the same compound, the “expression of TNFα” value in test [11] is on record as “reduced”. In addition, in test [11], the “expression of pro-fibrotic chemokine CTGF” value was “reduces”. Moreover, the “expression of pro-fibrotic cytokine TGF-β” value in test [11] is given as “reduces”. For the same compound, the “expression of the pro-fibrotic genes BAX, ACTA2, Col1A1, fibronectin, THBS-1 and TIMP2” value in test [11] is listed as “reduces”. The “expression of OPA-1” value with rat renal NRK52E cells is given as “increasing”. The “expression of the same genes (Mcad, Cpt1a, Ndufa2, Atp5g1, Sod2) in the kidneys” value with liver and kidneys (kidneys) is “unaffected”. Moreover, in the test on liver and kidneys (liver), the “transcription of the mitochondrial genes Mcad, Cpt1a, Ndufa2, Atp5g1 and Sod2 in the liver” value is given as “induces”.
